Laboratory results: patent publication US10689381B2 (priority 2017, dated 2020)
Read-outs that look alike come from different tables or passages of the source.

Tests used:
[1] = test system: L1210; experiment: cells; format: cell-based, mouse
Description: (§1) A population of cells (>1×10^6 cells/mL as determined with a hemocytometer) was diluted with Dulbecco's Modified Eagle Medium (DMEM, Gibco) containing 10% fetal bovine serum (FBS, Gibco) to give a final concentration of 30,000 cells/mL. To each well of a 96-well plate (Corning® Costar®) was added 100 μL of the cell media solution with a multichannel pipet.
(§2) The test compounds were then added to the plate as follows: test compounds were diluted in DMSO to a concentration of 1 mM. 10-Fold serial dilutions in DMSO were next performed on a separate 96-well plate. Fresh culture media (100 μL) was added to each well of cells resulting in 200 μL of medium per well followed by 2 μL of each test agent. Compounds were tested in duplicate (n=2-8 times) at six concentrations between 0-1000 nM or 0-10000 nM. Following the addition of compound, cultures were incubated for an additional 72 hours.
(§3) The plates were incubated at 37° C. for 5 minutes (L1210) or 15 min (HCT116 and HCT116/VM46).

[2] = test system: HCT116; experiment: cells; format: cell-based, human; details: for IC50: read-out: IC50 HCT116
Description: as §1, §2, §3

[3] = vinblastine-sensitive cell lines

`CC[C@]1(NC(=O)C(c2ccccc2)c2ccccc2)C[C@H]2CN(CCc3c([nH]c4ccccc34)[C@@](C(=O)OC)(c3cc4c(cc3OC)N(C)[C@H]3[C@@](O)(C(=O)OC)[C@H](OC(C)=O)[C@]5(CC)C=CCN6CC[C@]43[C@@H]65)C2)C1` [Compound 22] showed an IC50 ([1]; Table 1) of 760 nM and an IC50 ([2]; Table 1) of 3800 nM.
Work on `CCC1(NC(=O)Cc2ccccc2)CC2CN(CCc3c([nH]c4ccccc34)C(C(=O)OC)(c3cc4c(cc3OC)N(C)C3C(O)(C(=O)OC)C(OC(C)=O)C5(CC)C=CCN6CCC43C65)C2)C1` (stereo not shown) [Compound 21] yielded an IC50 ([1]; Table 1) of 55 nM and an IC50 ([2]; Table 1) of 55 nM.
In the case of `CC[C@]1(NC(=O)c2nc3ccccc3o2)C[C@H]2CN(CCc3c([nH]c4ccccc34)[C@@](C(=O)OC)(c3cc4c(cc3OC)N(C)[C@H]3[C@@](O)(C(=O)OC)[C@H](OC(C)=O)[C@]5(CC)C=CCN6CC[C@]43[C@@H]65)C2)C1` [Compound 169], the IC50 ([1]; Table 6) is reported as 60 nM and the IC50 ([2]; Table 6) is reported as 60 nM.
Work on `CCC1(NC(=O)c2ccc(OC(F)(F)F)cc2)CC2CN(CCc3c([nH]c4ccccc34)C(C(=O)OC)(c3cc4c(cc3OC)N(C)C3C(O)(C(=O)OC)C(OC(C)=O)C5(CC)C=CCN6CCC43C65)C2)C1` (stereo not shown) [Compound 78] yielded an IC50 ([1]; Table 2) of 5.9 nM and an IC50 ([2]; Table 2) of 4.4 nM.
Work on `CCC1(NC(=O)c2ccc(NC(=O)OC)cc2)CC2CN(CCc3c([nH]c4ccccc34)C(C(=O)OC)(c3cc4c(cc3OC)N(C)C3C(O)(C(=O)OC)C(OC(C)=O)C5(CC)C=CCN6CCC43C65)C2)C1` (stereo not shown) [Compound 59] yielded an IC50 ([1]; Table 2) of 1.5 nM and an IC50 ([2]; Table 2) of 0.8 nM.
Work on `CCC1(NC(=O)c2ccc3c(c2)OCCO3)CC2CN(CCc3c([nH]c4ccccc34)C(C(=O)OC)(c3cc4c(cc3OC)N(C)C3C(O)(C(=O)OC)C(OC(C)=O)C5(CC)C=CCN6CCC43C65)C2)C1` (stereo not shown) [Compound 175] yielded an IC50 ([1]; Table 6) of 0.6 nM and an IC50 ([2]; Table 6) of 0.5 nM.
With `CC[C@]1(NC(=O)c2ccc(OC(F)(F)F)c(OC)c2)C[C@H]2CN(CCc3c([nH]c4ccccc34)[C@@](C(=O)OC)(c3cc4c(cc3OC)N(C)[C@H]3[C@@](O)(C(=O)OC)[C@H](OC(C)=O)[C@]5(CC)C=CCN6CC[C@]43[C@@H]65)C2)C1` [Compound 83] the IC50 ([1]; Table 2) was 1.3 nM and the IC50 ([2]; Table 2) was 1.7 nM.
`CCC1(NC(=O)c2ccc(OC(F)F)cc2)CC2CN(CCc3c([nH]c4ccccc34)C(C(=O)OC)(c3cc4c(cc3OC)N(C)C3C(O)(C(=O)OC)C(OC(C)=O)C5(CC)C=CCN6CCC43C65)C2)C1` (stereo not shown) [Compound 81] was tested, and the IC50 ([1]; Table 2) was 5.9 nM and the IC50 ([2]; Table 2) was 1.7 nM.
Compound `CC[C@]1(NC(=O)c2ccccc2Cl)C[C@H]2CN(CCc3c([nH]c4ccccc34)[C@@](C(=O)OC)(c3cc4c(cc3OC)N(C)[C@H]3[C@@](O)(C(=O)OC)[C@H](OC(C)=O)[C@]5(CC)C=CCN6CC[C@]43[C@@H]65)C2)C1` [Compound 49] has an IC50 ([1]; Table 2) of 50 nM and an IC50 ([2]; Table 2) of 55 nM.
`CCC1(NC(=O)c2ccccc2C(F)(F)F)CC2CN(CCc3c([nH]c4ccccc34)C(C(=O)OC)(c3cc4c(cc3OC)N(C)C3C(O)(C(=O)OC)C(OC(C)=O)C5(CC)C=CCN6CCC43C65)C2)C1` (stereo not shown) [Compound 41] gave an IC50 ([1]; Table 2) of 45 nM and an IC50 ([2]; Table 2) of 60 nM.
In the case of `CCC1(NC(=O)c2ccc(C)c(NC(=O)OC(C)(C)C)c2)CC2CN(CCc3c([nH]c4ccccc34)C(C(=O)OC)(c3cc4c(cc3OC)N(C)C3C(O)(C(=O)OC)C(OC(C)=O)C5(CC)C=CCN6CCC43C65)C2)C1` (stereo not shown) [Compound 102], the IC50 ([1]; Table 2) is reported as 6 nM and the IC50 ([2]; Table 2) is reported as 7.1 nM.
In the case of `CC[C@]1(NC(=O)c2cscn2)C[C@H]2CN(CCc3c([nH]c4ccccc34)[C@@](C(=O)OC)(c3cc4c(cc3OC)N(C)[C@H]3[C@@](O)(C(=O)OC)[C@H](OC(C)=O)[C@]5(CC)C=CCN6CC[C@]43[C@@H]65)C2)C1` [Compound 139], the IC50 ([1]; Table 5) is reported as 5.6 nM and the IC50 ([2]; Table 5) is reported as 6.3 nM.
For `CC[C@]1(NC(=O)c2cccc(C(F)(F)F)c2)C[C@H]2CN(CCc3c([nH]c4ccccc34)[C@@](C(=O)OC)(c3cc4c(cc3OC)N(C)[C@H]3[C@@](O)(C(=O)OC)[C@H](OC(C)=O)[C@]5(CC)C=CCN6CC[C@]43[C@@H]65)C2)C1` [Compound 40], the IC50 ([1]; Table 2) was 6.2 nM and the IC50 ([2]; Table 2) was 6.4 nM.
For `CC[C@]1(NC(=O)c2ccc(OC)c(C)c2)C[C@H]2CN(CCc3c([nH]c4ccccc34)[C@@](C(=O)OC)(c3cc4c(cc3OC)N(C)[C@H]3[C@@](O)(C(=O)OC)[C@H](OC(C)=O)[C@]5(CC)C=CCN6CC[C@]43[C@@H]65)C2)C1` [Compound 97], the IC50 ([1]; Table 2) was 0.6 nM, the IC50 ([2]; Table 2) was 0.7 nM and the “potency relative to vinblastine (more potent)” value [2, 3] was 10 fold.
Work on `CCC1(NC(=O)c2ccc(OC)c(Br)c2)CC2CN(CCc3c([nH]c4ccccc34)C(C(=O)OC)(c3cc4c(cc3OC)N(C)C3C(O)(C(=O)OC)C(OC(C)=O)C5(CC)C=CCN6CCC43C65)C2)C1` (stereo not shown) [Compound 93] yielded an IC50 ([1]; Table 2) of 5.1 nM and an IC50 ([2]; Table 2) of 6.2 nM.
`CCC1(NC(=O)c2cccc3ccccc23)CC2CN(CCc3c([nH]c4ccccc34)C(C(=O)OC)(c3cc4c(cc3OC)N(C)C3C(O)(C(=O)OC)C(OC(C)=O)C5(CC)C=CCN6CCC43C65)C2)C1` (stereo not shown) [Compound 115] was tested, and the IC50 ([1]; Table 4) was 60 nM, the IC50 ([2]; Table 4) was 65 nM and the “potency relative to vinblastine (less potent / reduced activity)” value [2, 3] was “roughly 10 fold”.
Compound `CCCCCC(=O)N[C@@]1(CC)C[C@H]2CN(CCc3c([nH]c4ccccc34)[C@@](C(=O)OC)(c3cc4c(cc3OC)N(C)[C@H]3[C@@](O)(C(=O)OC)[C@H](OC(C)=O)[C@]5(CC)C=CCN6CC[C@]43[C@@H]65)C2)C1` [Compound 15] has an IC50 ([1]; Table 1) of 55 nM and an IC50 ([2]; Table 1) of 40 nM.
`CCCc1ccc(C(=O)NC2(CC)CC3CN(CCc4c([nH]c5ccccc45)C(C(=O)OC)(c4cc5c(cc4OC)N(C)C4C(O)(C(=O)OC)C(OC(C)=O)C6(CC)C=CCN7CCC54C76)C3)C2)cc1` (stereo not shown) [Compound 34] gave an IC50 ([1]; Table 2) of 4.3 nM and an IC50 ([2]; Table 2) of 4.8 nM.
Work on `CC[C@]1(NC(=O)c2ccc3c(c2)CCCC3)C[C@H]2CN(CCc3c([nH]c4ccc(F)cc34)[C@@](C(=O)OC)(c3cc4c(cc3OC)N(C)[C@H]3[C@@](O)(C(=O)OC)[C@H](OC(C)=O)[C@]5(CC)C=CCN6CC[C@]43[C@@H]65)C2)C1` [Compound 189] yielded an IC50 ([1]; Table 8, 10′-F compounds) of 5 nM and an IC50 ([2]; Table 8, 10′-F compounds) of 6.2 nM.
In the case of `CCC1(NS(=O)(=O)c2ccccc2)CC2CN(CCc3c([nH]c4ccccc34)C(C(=O)OC)(c3cc4c(cc3OC)N(C)C3C(O)(C(=O)OC)C(OC(C)=O)C5(CC)C=CCN6CCC43C65)C2)C1` (stereo not shown) [Compound 179], the IC50 ([1]; Table 7, C20′ sulfonamides) is reported as 45 nM and the IC50 ([2]; Table 7, C20′ sulfonamides) is reported as 50 nM.
For `CCC1(NC(=O)c2cccc(OC)c2)CC2CN(CCc3c([nH]c4ccccc34)C(C(=O)OC)(c3cc4c(cc3OC)N(C)C3C(O)(C(=O)OC)C(OC(C)=O)C5(CC)C=CCN6CCC43C65)C2)C1` (stereo not shown) [Compound 68], the IC50 ([1]; Table 2) was 0.6 nM and the IC50 ([2]; Table 2) was 0.8 nM.
`CCC1(NC(=O)c2ccc3cc(N)ccc3c2)CC2CN(CCc3c([nH]c4ccccc34)C(C(=O)OC)(c3cc4c(cc3OC)N(C)C3C(O)(C(=O)OC)C(OC(C)=O)C5(CC)C=CCN6CCC43C65)C2)C1` (stereo not shown) [Compound 117] gave an IC50 ([1]; Table 4) of 0.7 nM and an IC50 ([2]; Table 4) of 0.8 nM.
`CCC1(NC(=O)C2CCN(C)CC2)CC2CN(CCc3c([nH]c4ccccc34)C(C(=O)OC)(c3cc4c(cc3OC)N(C)C3C(O)(C(=O)OC)C(OC(C)=O)C5(CC)C=CCN6CCC43C65)C2)C1` (stereo not shown) [Compound 148] was tested, and the IC50 ([1]; Table 5) was 5300 nM and the IC50 ([2]; Table 5) was 4400 nM.
Compound `CC[C@]1(NC(=O)/C=C/c2ccccn2)C[C@H]2CN(CCc3c([nH]c4ccccc34)[C@@](C(=O)OC)(c3cc4c(cc3OC)N(C)[C@H]3[C@@](O)(C(=O)OC)[C@H](OC(C)=O)[C@]5(CC)C=CCN6CC[C@]43[C@@H]65)C2)C1` [Compound 111] has an IC50 ([1]; Table 3) of 0.7 nM and an IC50 ([2]; Table 3) of 0.7 nM.
`CCC1(NC(=O)c2ccsc2)CC2CN(CCc3c([nH]c4ccccc34)C(C(=O)OC)(c3cc4c(cc3OC)N(C)C3C(O)(C(=O)OC)C(OC(C)=O)C5(CC)C=CCN6CCC43C65)C2)C1` (stereo not shown) [Compound 135] was tested, and the IC50 ([1]; Table 5) was 0.5 nM and the IC50 ([2]; Table 5) was 0.7 nM.
